Measurements published in US20050203013A1, “Methods for inhibiting vascular permeability” (priority 2002, published 2005).

Assays:
[1] = system: A2058 human melanoma tumor vessel permeability; test: Miles assay on tumor-bearing mice (Example 2); assay type: in vivo, SCID mice; settings: 30 mg/kg/day for three days
Protocol: One of the problems with angiogenesis-dependent diseases is increased vessel permeability (due to high levels of VPF) which results in edema and loss of proteins. A decrease in vessel permeability is beneficial in those diseases. We have found, using the Miles assay ([…], et al., Cancer Res, 56:172-181 (1996)), that free and bound TNP-470 block permeability. Briefly, a dye, Evans Blue (1% in PBS), was injected i.v. to anesthesized mice. After 10 min, human recombinant VEGF165 (50 ng/50 μl) was injected intradermally into the back skin. Leakage of protein-bound dye was detected as blue spots on the underside of the back skin surrounding the injection site. After 20 min mice were euthanized. Then, the skin was excised, left in formamide for 5 days to be extracted and the solution read at 620 nm. Putative angiogenesis inhibitors such as free and conjugated TNP-470 were injected daily 3 days (30 mg/kg/day) prior to the VEGF challenge. The same was repeated on tumor-bearing mice to evaluate the effect of angiogenesis inhibitors on tumor vessel permeability.

[2] = system: U87 glioblastoma tumor blood vessel permeability; test: Miles assay on tumor-bearing mice (Example 3), U87; set-up: species or system SCID mice; settings: mouse, in vivo
Protocol: Female SCID mice ( 8 weeks, 20 g) were inoculated s.c. with 5×10^6 viable U87 glioblastoma cells or viable A2058 human melanoma cells or BXPC3 pancreas adenocarcinoma cells. Female nu/nu mice were inoculated with MCF-7 or MDA-MB-231 breast carcinoma cells in the mammary fat pad. C57B1/6J were inoculated with LLC. […] blue dye was then injected i.v. and extravasation of dye assessed as above. Also, blood was withdrawn to measure VPF/VEGF levels in plasma and in tumors (n=5 from each group). Tumors (n=5 per group) were dissected, weighed and cut in half. Half of the tumor was placed in formalin and half was analyzed for VPF/VEGF protein by ELISA (see below). Formalin fixed tumors were processed for sectioning and staining with H & E, CD31, smooth muscle actin (SMA) and proliferating cell nuclear antigen (PCNA) according to the manufacturers' instructions.

[3] = system: VEGFR-2; test: VEGFR-2 phosphorylation in HUVEC; assay type: cell-based, Human; settings: 5 ng/ml for 2 hours
Protocol: (§1) Serum-starved (0.1% FBS in EBM-2 media for 24 hours) HMVEC-d or HUVEC were treated with 5 ng/ml TNP-470 and HPMA copolymer-TNP-470 at 37° C. for 2 hours, and then stimulated with 10 ng/ml of VEGF for 5 minutes. Stimulation was stopped by adding cold PBS. […] After washing the beads with precipitation buffer, immunoprecipitates were resuspended in 2× SDS sample buffer for Western blot analysis with an antibody against phosphorylated tyrosine (pTyr).

[4] = system: vesiculo-vacuolar organelles and inter-endothelial junctions; test: Electron microscopy of skin venules with ferritin tracer; assay type: in vivo, SCID mice; settings: uninjected skin or skin injected with buffer
Protocol: SCID mice were treated for three days with TNP-470 (30 mg/kg) or saline, following which anionic Ferritin tracer was injected i.v. into mice and 50 μl of human VEGF165 (1 ng/μl), or 50 μl of PBS were injected intradermally into pre-shaved flank skin. After 15 min, animals were euthanized by cervical dislocation. Skin test and control sites were excised and fixed by immersion for 4 hours in freshly prepared 2.0% paraformaldehyde-2.5% glutaraldehyde-0.025% calcium chloride in 0.1 M sodium cacodylate buffer, pH 7.4. Tissues were postfixed for 2 h in 1.5% sym-collidine-buffered osmium tetroxide, stained en bloc with uranyl acetate, dehydrated in a graded series of alcohols, and embedded in Spurr resin as previously described (Dvorak et al., 1996; Feng et al., 1996). Thin sections were then cut, collected on carbon-Formvar-coated single slot grids, and viewed in an electron microscope (CM10; Philips, Eindhoven, The Netherlands).

[5] = Water solubility; assay type: physicochemical
Protocol: To evaluate the biological activity of HPMA-TNP-470, the following assays were performed: […]

[6] = system: U87 glioblastoma cells; test: Cell proliferation assay, U87; assay type: cell-based, human; settings: 72 hours
Protocol: HMVEC-d cells were trypsinized (0.05% trypsin) and resuspended (15,000 cells/ml) in EBM-2 supplemented with 5% fetal bovine serum (FBS), plated onto gelatinized 24-well culture plates (0.5 ml/well), and incubated for 24 hours (37° C., 5% CO2). The media was replaced with 0.5 ml of complete media (serum and growth factors; EGM-2 MV), and test substances were applied. Cells were challenged with free or conjugated TNP-470 (0.01 pg/ml to 1 mg/ml TNP-470-equivalent concentration). Control cells were grown with or without growth factors. U87 glioblastoma cells were washed with PBS, trypsinized and resuspended (5,000 cells/ml) in DMEM supplemented with 10% FBS, plated onto 24-well culture plates (0.5 ml/well), and incubated for 24 hours (37° C., 5% CO2). The media was replaced with 0.5 ml of DMEM and 10% FBS, and the test sample applied. Cells were challenged with free or conjugated TNP-470 (0.01 pg/ml to 1 mg/ml TNP-470-equivalent concentration). Control cells were grown with or without 10% FBS. Both cell types were incubated for 72 hours, followed by trypsinization, resuspension in Hematall (Fisher Scientific, Pittsburgh, Pa.), and counted in a Coulter counter.

[7] = system: VEGFR-2; test: VEGFR-2 phosphorylation in HMVEC-d; assay type: cell-based, Human; settings: 5 ng/ml for 2 hours
Protocol: as §1

[8] = system: ear swelling; test: Delayed-type hypersensitivity reaction elicited by oxazolone; assay type: in vivo, C57B1/6J mice
Protocol: Delayed-type hypersensitivity (DTH) reactions were induced in the skin of 8-week-old C57B1/6J male mice (n=5) as previously described (Dvorak et al., 1984). In order to induce an immune response to oxazolone, mice were first sensitized by topical application of 2% oxazolone solution in vehicle, acetone: olive oil (4:1 vol/vol), to the shaved abdomen (50 μl) and to each paw (5 μl). Mice were treated with TNP-470 (30 mg/kg s.c.) for three days prior to the second challenge with oxazolone. Five days after sensitization, the right ears were challenged by topical application of 10 μl of a 1% oxazolone solution; the left ears were treated with vehicle alone. Ear thickness was then measured daily for up to 7 days as a measure of inflammation intensity (Gad et al., 1986). Statistical analysis was performed using the unpaired Student t test. Some mice from each experimental group were euthanized 24 hours after oxazolone challenge (n=5 per group). One half of each ear was fixed in 10% formalin and was processed, embedded in paraffin and stained for H & E. The other half was embedded in OCT compound (Sakura Finetek, Torrance, Calif.) and snap-frozen in liquid nitrogen. Immunohistochemical staining was performed on 5 μm cryostat sections using a Vecstatin avidin-biotin detection system (Vector Labs, Burlingame, Calif.) with rat monoclonal antibodies against mouse CD31 (dilution 1:250, Pharmingen, San Diego, Calif.) according to the manufacturers' instructions.

Structure (SMILES): CO[C@@H]1[C@H](OC(=O)NC(=O)CCl)CC[C@]2(CO2)[C@H]1[C@@]1(C)O[C@@H]1CC=C(C)C [TNP-470]
- tumor vessel permeability [1]: decreased
- Evan's blue extravasation into U87 glioblastomas [2]: did not inhibit
- VPF/VEGF-induced phosphorylation of VEGFR-2 [3]: significantly reduced
- extravasation of circulating ferritin via VVOs [4]: reduced
- water solubility [5]: not water-soluble
- concentration inhibiting serum-induced proliferation (cytostatic effect) ([6]; U87 glioblastoma cells): higher than 10 ng/ml
- cytotoxic concentration ([6]; U87 tumor cells): higher than 100 μg/ml
- VPF/VEGF-induced phosphorylation of VEGFR-2 [7]: significantly reduced
- inflammatory response (histology) ([8]; 24 hours after challenge): dramatically reduced
- ear swelling and erythema vs control mice ([8]; 24 hours after oxazolone challenge, P<0.01): significantly reduced ear swelling and erythema
- difference in ear swelling vs control mice ([8]; 48 hours, P<0.01): persisted
- difference in ear swelling vs control mice ([8]; 4 days): differences had disappeared
